According to US11370798B2 (Vertex Pharmaceuticals Incorporated, priority 2012, dated 2022):

Tested on: HCT116 colorectal cancer cells
Experiment: Cisplatin sensitization assay (96 h cell viability MTS);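 note: Test-compound concentration that lowers the Cisplatin IC50 by a set fold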
Format: cell-based
Settings: compound and Cisplatin added simultaneously, Cisplatin sensitization value
Procedure: Compounds can be screened for their ability to sensitize HCT116 colorectal cancer cells to Cisplatin using a 96 h cell viability (MTS) assay. […] Compounds and Cisplatin are then both added simultaneously to the cell media in 2-fold serial dilutions from a top final concentration of 10 μM as a full matrix of concentrations in a final cell volume of 200 μl, and the cells are then incubated at 37° C. in 5% CO2. After 96 h, 40 μl of MTS reagent (Promega G358a) is added to each well and the cells are incubated for 1 h at 37° C. in 5% CO2.
Compounds with a Cisplatin sensitization value of <0.02 μM are marked with “+++.” Compounds with a Cisplatin sensitization value>0.02 μM but <0.2 μM are marked with “++.” Compounds with a Cisplatin sensitization value>0.2 μM but <5 μM are marked with “+.”

SMILES | Cisplatin Sensitization Assay
CN1CCN(C(=O)c2ccc(-c3ccncc3NC(=O)c3c(N)nn4cc(F)cnc34)cc2)CC1 [I-C-25, 2-amino-6-fluoro-N-(4-(4-(4-methylpiperazine-1-carbonyl)phenyl)pyridin-3-yl)pyrazolo[1,5-a]pyrimidine-3-carboxamide] | +++ (Cisplatin sensitization value of <0.02 μM)
Nc1nn2cc(F)cnc2c1C(=O)Nc1cnccc1-c1ccnnc1 [I-C-26, 2-amino-6-fluoro-N-(4-(pyridazin-4-yl)pyridin-3-yl)pyrazolo[1,5-a]pyrimidine-3-carboxamide] | ++ (Cisplatin sensitization value>0.02 μM but <0.2 μM)
COc1ccc(-c2ccncc2NC(=O)c2c(N)nn3cc(F)cnc23)cn1 [I-C-27, 2-amino-6-fluoro-N-(6-methoxy-[3,4′-bipyridin]-3′-yl)pyrazolo[1,5-a]pyrimidine-3-carboxamide] | ++ (Cisplatin sensitization value>0.02 μM but <0.2 μM)
Cc1cnccc1-c1ccncc1NC(=O)c1c(N)nn2cc(F)cnc12 [I-C-29, 2-amino-6-fluoro-N-(3′-methyl-[4,4′-bipyridin]-3-yl)pyrazolo[1,5-a]pyrimidine-3-carboxamide] | +++ (Cisplatin sensitization value of <0.02 μM)
Cc1ccncc1-c1ccncc1NC(=O)c1c(N)nn2cc(F)cnc12 [I-C-30, 2-amino-6-fluoro-N-(4-methyl-[3,4′-bipyridin]-3′-yl)pyrazolo[1,5-a]pyrimidine-3-carboxamide] | +++ (Cisplatin sensitization value of <0.02 μM)
Cc1nnccc1-c1ccncc1NC(=O)c1c(N)nn2cc(F)cnc12 [I-C-31, 2-amino-6-fluoro-N-(4-(3-methylpyridazin-4-yl)pyridin-3-yl)pyrazolo[1,5-a]pyrimidine-3-carboxamide] | +++ (Cisplatin sensitization value of <0.02 μM)
Cc1ccnnc1-c1ccncc1NC(=O)c1c(N)nn2cc(F)cnc12 [I-C-33, 2-amino-6-fluoro-N-(4-(4-methylpyridazin-3-yl)pyridin-3-yl)pyrazolo[1,5-a]pyrimidine-3-carboxamide] | + (Cisplatin sensitization value>0.2 μM but <5 μM)
Cc1nc(F)ccc1-c1ccncc1NC(=O)c1c(N)nn2cc(F)cnc12 [I-C-34, 2-amino-6-fluoro-N-(6-fluoro-2-methyl-[3,4′-bipyridin]-3′-yl)pyrazolo[1,5-a]pyrimidine-3-carboxamide] | +++ (Cisplatin sensitization value of <0.02 μM)
Nc1nn2cc(F)cnc2c1C(=O)Nc1cnccc1-c1cccnc1F [I-C-35, 2-amino-6-fluoro-N-(2-fluoro-[3,4′-bipyridin]-3′-yl)pyrazolo[1,5-a]pyrimidine-3-carboxamide] | +++ (Cisplatin sensitization value of <0.02 μM)
Cc1cccnc1-c1ccncc1NC(=O)c1c(N)nn2cc(F)cnc12 [I-C-36, 2-amino-6-fluoro-N-(3-methyl-[2,4′-bipyridin]-3′-yl)pyrazolo[1,5-a]pyrimidine-3-carboxamide] | +++ (Cisplatin sensitization value of <0.02 μM)
Nc1nn2cc(F)cnc2c1C(=O)Nc1cnccc1-c1cccnc1Cl [I-C-37, 2-amino-N-(2-chloro-[3,4′-bipyridin]-3′-yl)-6-fluoropyrazolo[1,5-a]pyrimidine-3-carboxamide] | +++ (Cisplatin sensitization value of <0.02 μM)
CN1CCC(C(=O)N2CC=C(c3c(F)cncc3NC(=O)c3c(N)nn4cc(F)cnc34)CC2)CC1 [I-C-38, 2-amino-6-fluoro-N-(5-fluoro-1′-(1-methylpiperidine-4-carbonyl)-1′,2′,3′,6′-tetrahydro-[4,4′-bipyridin]-3-yl)pyrazolo[1,5-a]pyrimidine-3-carboxamide] | ++ (Cisplatin sensitization value>0.02 μM but <0.2 μM)
Cc1nc(C(=O)N2CCN(C)CC2)ccc1-c1ccncc1NC(=O)c1c(N)nn2cc(F)cnc12 [I-C-39, 2-amino-6-fluoro-N-(2-methyl-6-(4-methylpiperazine-1-carbonyl)-[3,4′-bipyridin]-3′-yl)pyrazolo[1,5-a]pyrimidine-3-carboxamide] | +++ (Cisplatin sensitization value of <0.02 μM)
Cc1nc(N2CCN(C)CC2)ccc1-c1ccncc1NC(=O)c1c(N)nn2cc(F)cnc12 [I-C-40, 2-amino-6-fluoro-N-(2-methyl-6-(4-methylpiperazin-1-yl)-[3,4′-bipyridin]-3′-yl)pyrazolo[1,5-a]pyrimidine-3-carboxamide] | +++ (Cisplatin sensitization value of <0.02 μM)
Cc1nc(O[C@@H]2CCN(C)C2)ccc1-c1ccncc1NC(=O)c1c(N)nn2cc(F)cnc12 [I-C-41, (R)-2-amino-6-fluoro-N-(2-methyl-6-((1-methylpyrrolidin-3-yl)oxy)-[3,4′-bipyridin]-3′-yl)pyrazolo[1,5-a]pyrimidine-3-carboxamide] | +++ (Cisplatin sensitization value of <0.02 μM)
Nc1nn2cc(F)cnc2c1C(=O)Nc1cnccc1C1CC1 [I-C-42, 2-amino-N-(4-cyclopropylpyridin-3-yl)-6-fluoropyrazolo[1,5-a]pyrimidine-3-carboxamide] | ++ (Cisplatin sensitization value>0.02 μM but <0.2 μM)
CN1CCN(C(=O)c2ccc(-c3c(F)cncc3NC(=O)c3c(N)nn4cc(F)cnc34)cc2)CC1 [I-C-43, 2-amino-6-fluoro-N-(5-fluoro-4-(4-(4-methylpiperazine-1-carbonyl)phenyl)pyridin-3-yl)pyrazolo[1,5-a]pyrimidine-3-carboxamide] | +++ (Cisplatin sensitization value of <0.02 μM)
Nc1nn2cc(F)cnc2c1C(=O)Nc1cnccc1-c1ccc(C(=O)N2CCNCC2)cc1 [I-C-44, 2-amino-6-fluoro-N-(4-(4-(piperazine-1-carbonyl)phenyl)pyridin-3-yl)pyrazolo[1,5-a]pyrimidine-3-carboxamide] | +++ (Cisplatin sensitization value of <0.02 μM)
Cc1cc(C(=O)N2CCN(C)CC2)ccc1-c1ccncc1NC(=O)c1c(N)nn2cc(F)cnc12 [I-C-45, 2-amino-6-fluoro-N-(4-(2-methyl-4-(4-methylpiperazine-1-carbonyl)phenyl)pyridin-3-yl)pyrazolo[1,5-a]pyrimidine-3-carboxamide] | +++ (Cisplatin sensitization value of <0.02 μM)
CN1CCN(C(=O)c2cnc(-c3ccncc3NC(=O)c3c(N)nn4cc(F)cnc34)c(Cl)c2)CC1 [I-C-46, 2-amino-N-(3-chloro-5-(4-methylpiperazine-1-carbonyl)-[2,4′-bipyridin]-3′-yl)-6-fluoropyrazolo[1,5-a]pyrimidine-3-carboxamide] | + (Cisplatin sensitization value>0.2 μM but <5 μM)
Nc1nn2cc(F)cnc2c1C(=O)Nc1cnccc1C1CCN(S(=O)(=O)C2CC2)CC1 [I-C-47, 2-amino-N-(4-(1-(cyclopropylsulfonyl)piperidin-4-yl)pyridin-3-yl)-6-fluoropyrazolo[1,5-a]pyrimidine-3-carboxamide] | +++ (Cisplatin sensitization value of <0.02 μM)
Nc1nn2cc(F)cnc2c1C(=O)Nc1cnccc1-c1ccc(C(=O)N2CCN3CCC2CC3)cc1 [I-C-48, N-(4-(4-(1,4-diazabicyclo[3.2.2]nonane-4-carbonyl)phenyl)pyridin-3-yl)-2-amino-6-fluoropyrazolo[1,5-a]pyrimidine-3-carboxamide] | +++ (Cisplatin sensitization value of <0.02 μM)
Nc1nn2cc(F)cnc2c1C(=O)Nc1cnccc1-c1ccc(C(=O)N2CCN(C3COC3)CC2)cc1 [I-C-49, 2-amino-6-fluoro-N-(4-(4-(4-(oxetan-3-yl)piperazine-1-carbonyl)phenyl)pyridin-3-yl)pyrazolo[1,5-a]pyrimidine-3-carboxamide] | +++ (Cisplatin sensitization value of <0.02 μM)
Nc1nn2cc(F)cnc2c1C(=O)Nc1cnccc1-c1ccc(C(=O)N2CCN3CCC2CC3)cc1F [I-C-50, N-(4-(4-(1,4-diazabicyclo[3.2.2]nonane-4-carbonyl)-2-fluorophenyl)pyridin-3-yl)-2-amino-6-fluoropyrazolo[1,5-a]pyrimidine-3-carboxamide] | +++ (Cisplatin sensitization value of <0.02 μM)
Nc1nn2cc(F)cnc2c1C(=O)Nc1cnccc1-c1ccc(C(=O)N2CCN(C3COC3)CC2)cc1F [I-C-51, 2-amino-6-fluoro-N-(4-(2-fluoro-4-(4-(oxetan-3-yl)piperazine-1-carbonyl)phenyl)pyridin-3-yl)pyrazolo[1,5-a]pyrimidine-3-carboxamide] | ++ (Cisplatin sensitization value>0.02 μM but <0.2 μM)
Nc1nn2cc(F)cnc2c1C(=O)Nc1cnccc1-c1ccc(C(=O)N2CCN(C3COC3)CC2)nc1 [I-C-52, 2-amino-6-fluoro-N-(6-(4-(oxetan-3-yl)piperazine-1-carbonyl)-[3,4′-bipyridin]-3′-yl)pyrazolo[1,5-a]pyrimidine-3-carboxamide] | ++ (Cisplatin sensitization value>0.02 μM but <0.2 μM)
Nc1nn2cc(F)cnc2c1C(=O)Nc1cnccc1-c1ccc(C(=O)N2CCC(N3CCCC3)CC2)nc1 [I-C-53, 2-amino-6-fluoro-N-(6-(4-(pyrrolidin-1-yl)piperidine-1-carbonyl)-[3,4′-bipyridin]-3′-yl)pyrazolo[1,5-a]pyrimidine-3-carboxamide] | +++ (Cisplatin sensitization value of <0.02 μM)
Nc1nn2cc(F)cnc2c1C(=O)Nc1cnccc1-c1ccc(C(=O)N2CCC(N3CCC3)CC2)nc1 [I-C-54, 2-amino-N-(6-(4-(azetidin-1-yl)piperidine-1-carbonyl)-[3,4′-bipyridin]-3′-yl)-6-fluoropyrazolo[1,5-a]pyrimidine-3-carboxamide] | +++ (Cisplatin sensitization value of <0.02 μM)
